In a melting point compilation (Tetko et al.):

Conditions: a range is the spread between reports

melting point	Structure (SMILES)
58 to 61 °C	CCCCCCCCCCCCCCCCCCO
128 to 129 °C	O=C(O)Cc1ccc(O)c(O)c1
130 to 132 °C	Ic1ccc(I)cc1
103 to 104 °C	BrC1c2ccccc2-c2ccccc21
-28 to -27 °C	CCCOc1ccccc1
60 to 63.5 °C	OC1(c2ccccc2)CCCCC1
53 to 56 °C	COc1ccc(/N=N/c2ccccc2)cc1
52 to 53 °C	CCCCCCCCCCCCCCC(=O)O
8.5 to 11.1 °C	NCCN
39 to 41.5 °C	NCCCCCCN
93 to 94 °C	O=C(C[N+](=O)[O-])Nc1ccccc1
-113 °C	CCC(C)(C)CC(C)C
220 to 221 °C	O=C(O)c1ccc(C(F)(F)F)cc1
175 to 180 °C	CCNC(=O)C(=O)NCC
-132 °C	C=C(CC)CC
88.5 to 89 °C	CCOc1ccc(CC(=O)O)cc1
20 to 22 °C	O=Cc1ccccc1Br
-12 to -11.7 °C	O=[N+]([O-])c1cc(F)ccc1F
133 to 135 °C	O=C(O)/C=C/c1ccccc1
88 to 92 °C	CCOC(=O)c1ccc(N)cc1
-10 to -9.2 °C	C[C@H]1CC[C@@H](O)CC1
11 to 12 °C	CCCCCCCCCCCCCCCC(=O)Cl

melting point	Structure (SMILES)
235 to 240 °C	CC12C=CC(=O)C=C1CCC1C2C(O)CC2(C)C1CCC2(O)C(=O)CO (stereo not given)
105 to 107 °C	CCCCC1C(=O)N(c2ccccc2)N(c2ccccc2)C1=O
111 to 112 °C	C1CSCCS1
122 to 126 °C	O=C1CCN(c2ccccc2)N1
54 to 55 °C	CN(C)c1ccc(Br)cc1
156 °C	O=P(c1ccccc1)(c1ccccc1)c1ccccc1
170 to 173 °C	O=C(NNc1ccccc1)NNc1ccccc1
-53 to -52 °C	COCc1ccccc1
-50 to -46 °C	CCN(C(C)C)C(C)C
208 to 210 °C	O=C1OCc2c(Cl)c(Cl)c(Cl)c(Cl)c21
-18 to -17.9 °C	CC(c1ccccc1)c1ccccc1
79.5 to 80 °C	O=C1CCC(c2ccccc2)CC1
32.5 to 34 °C	N#CCc1cccc2ccccc12
54.5 to 56.5 °C	CC(C)(C)c1ccc(O)c(C(C)(C)C)c1
-77 to -73.5 °C	CC(C)CNCC(C)C
96.5 to 97 °C	CCCCCCCCCCCCOC(=O)c1cc(O)c(O)c(O)c1
12 to 13.5 °C	CC(=O)c1cccnc1
-188 °C	CCC
105 to 106 °C	c1cnc2[nH]ccc2c1
15.5 to 16 °C	BrCCCCCCCCBr
79 to 80 °C	NNC(=O)c1ccco1

Second part, the compound before the results:

Structure (SMILES)	melting point
C1OCOCO1	60.2 to 61 °C
N#Cc1c(F)c(F)c(F)c(F)c1F	2 to 2.4 °C
Nc1cc(Cl)cc(Cl)c1	51 to 53 °C
CCC#CCCC	-131 to -130 °C
COc1cccc(C=O)c1O	41 to 44.5 °C
c1ccc2c(c1)Sc1ccccc1S2	159 °C
N#CNC(=N)N	208 to 211 °C
COc1ccc(Br)cc1	10 to 13.5 °C
Nc1ccc(Cl)cc1	70 to 72.5 °C
Clc1cccc(Cl)c1Cl	52.6 to 55 °C
Cc1cccc2c(C)cccc12	80 to 82 °C
CCOC(=O)C(O)(c1ccccc1)c1ccccc1	30 to 34 °C
CC1=C(C)CCCC1	-84.1 to -84 °C
Cc1csc(N)n1	44 to 45.5 °C
c1ccc(Cc2ccccn2)cc1	10 to 12.5 °C
OCc1c(Cl)cccc1Cl	97 to 98 °C
O=C(O)c1cc([N+](=O)[O-])cc([N+](=O)[O-])c1	205 to 206 °C
CC(C)(C)C1CCCCC1	-41.2 to -41 °C
C#CC1(O)CCCCC1	31.5 to 33 °C
N#Cc1ccccn1	27 to 29 °C
CC(=O)c1ccc(C(F)(F)F)cc1	31 to 32 °C
C#CCCC(=O)O	56 to 57.7 °C
Oc1ccc(Cl)c(Cl)c1	66 to 68 °C
Brc1cnc2ccccc2c1	13.3 to 14 °C
O=[N+]([O-])c1cccc(O)c1	94 to 98 °C
CCCCCCCCCCCCCCCCCCCCCCO	70 to 72.5 °C

Structure (SMILES)	melting point
FC(F)(F)C(F)(F)C(F)(F)C(F)(F)C(F)(F)C(F)(F)C(F)(F)C(F)(F)F	-25 to -23.2 °C
C=CC(=O)OCC	-71.2 to -71 °C
O=Cc1ccc2c(c1)OCO2	36 to 37 °C
Oc1ccc2cc(O)ccc2c1	220 to 224 °C
COc1cccc(OC)c1C	39 to 40 °C
CC(C)Cl	-118 to -117 °C
c1ccc(/N=N/c2ccccc2)cc1	67 to 69 °C
CCOc1ccccc1OCC	43 to 44 °C
O=P(O)(c1ccccc1)c1ccccc1	194 to 195 °C
CCN(CC)c1ccc(C=O)cc1	40 to 41 °C
Clc1nc(Cl)c(Cl)c(Cl)c1Cl	125 to 126 °C
O=[N+]([O-])c1ccccc1F	-8 to -6 °C
CCCCCCCCCCCC(=O)OC	5 to 5.2 °C
Nc1ccccc1-c1ccccc1	49 to 51.5 °C
c1ccc(-c2ccccc2-c2ccccc2)cc1	56 to 57 °C
COc1ccccc1Br	2 to 3 °C
c1ccoc1	-85.6 to -85 °C
O=C1OC2(c3ccc(O)cc3Oc3cc(O)ccc32)c2ccccc21	315 to 320 °C
O=Cc1ccc(-c2ccccc2)cc1	59 to 60 °C
CCCCCCCCP(=O)(CCCCCCCC)CCCCCCCC	52 to 55 °C
O=S(=O)(Cl)c1cccs1	28 to 30 °C
Cc1ccc(C(=O)O)cc1C	165 to 166 °C
Cc1ccc(Cc2ccccc2)cc1	4.58 to 5 °C
Nc1ccc(F)cc1F	-8 to -7.5 °C
CN1CCC(O)CC1	28 to 29 °C
O=C(O)C(c1ccccc1)c1ccccc1	146 to 147 °C

Structure (SMILES)	melting point
C=C(C)CC(C)C	-124 °C
CCCCCCCCCCCCCCCCCCCCCCCCCCC	59 to 59.5 °C
O=Cc1ccc(Cl)cc1	46 to 48.5 °C
CCCCCCCCC#N	-34.2 to -34 °C
C=Cc1cccc(C(=O)O)c1	95 to 96 °C
CC(=O)c1ccc(O)c(O)c1O	171 to 173 °C
NC(=O)c1ccccc1Br	160 to 161 °C
O=C(Cl)c1ccccc1F	4 to 5 °C
Cc1ccc2cccnc2c1	36.5 to 39 °C
N#CCc1ccc(Br)cc1	47 to 48 °C
CC(=O)Cl	-113 to -112 °C
O=C(Cl)c1ccc2ccccc2c1	50 to 51 °C
Clc1nc(Cl)nc(Nc2ccccc2Cl)n1	160 °C
c1ccc2cc(-c3ccc4ccccc4c3)ccc2c1	187 to 188 °C
CCCCCCCCCCCCCCCCCCS	30 to 32 °C
C1COCCO1	11.8 to 12 °C
Cc1cc(Cl)nc(Cl)n1	46 to 46.5 °C
C1CN2CCN1CC2	158 to 159 °C
CC(C)(O)C(=O)O	79 to 82.5 °C
CCCCC(CC)COC(=O)CCCCC(=O)OCC(CC)CCCC (stereo not given)	-67.8 to -67 °C
CCn1cc(C(=O)O)c(=O)c2ccc(C)nc21	229 to 230 °C
CCC(C)(O)C#CC(C)(O)CC (stereo not given)	53 to 54 °C
COC1=CC(=O)C=C(OC)C1=O	253 to 256 °C
CC(C)(C)c1ccc(C(=O)O)cc1	164 to 166 °C
c1ccc(C2CO2)cc1 (stereo not given)	-37 to -35.6 °C
